Some test systems named below: Candida krusei PMC 0624; Candida krusei PMC 0610; Escherichia coli 987P; Escherichia coli K99; Escherichia coli 078; Escherichia coli K88; Escherichia coli UB1005.
Common to all, as to assay: ≥ marks a high value that may be exact or a test limit, other limits are often not marked, values filed in µg/mL are converted to µM
The subject of test [1] is Trichophyton mentagrophytes PMC 6528.
The test system of test [2] is Aspergillus terreus PMC 7201.
Test [3] deals with Candida parapsilosis DSM 11224.
Test [4] has as its system Corynebacterium jeikeium ATCC BAA-949.
In test [5] the test system is Cryptococcus neoformans DSM 11759.
Test [6] relates to Candida glabrata PMC 0805.
Test [7] relates to Candida albicans ATCC 24433.
In test [8] the test system is Trichophyton mentagrophytes DSM 4870.
Test [9] relates to Aspergillus niger PMC 7101.
Test [10] deals with Candida tropicalis DSM 11953.
The test system of test [11] is Trichophyton mentagrophytes PMC 6530.
In test [12] the test system is Aspergillus brasiliensis DSM 1988.
Test [13] concerns Candida albicans ATCC 10231.
Test [14] has as its system Trichophyton mentagrophytes PMC 6529.
Test [15] deals with Candida parapsilosis PMC 0711.
In test [16] the test system is Microsporum canis DSM 10708.
Test [17] has as its system Clavibacter michiganensis subsp. michiganensis MAFF 301254.
The test system of test [18] is Pyricularia oryzae MAFF 101511.
Test [19] has as its system Xanthomonas oryzae pv. oryzae MAFF 311018.
In test [20] the test system is Candida albicans NCYC 1467.
Test [21] concerns Enterococcus faecalis NCTC 12697.
Test [22] concerns Staphylococcus aureus NCTC 10788.
The subject of test [23] is Klebsiella pneumoniae ATCC 43816.
Test [24] concerns Escherichia coli NCTC 10418.
Test [25] relates to Pseudomonas aeruginosa ATCC 27853.
For test [26], the system named is Staphylococcus aureus NCTC 12493.
The subject of test [27] is Acinetobacter baumannii BCRC 14B0100.
Test [28] deals with Staphylococcus aureus M838-17.
The subject of test [29] is Pseudomonas aeruginosa E411-17.
Test [30] deals with Klebsiella pneumoniae E406-17.
Test [31] concerns Lacticaseibacillus rhamnosus 1.0911.
Test [32] concerns Staphylococcus aureus ATCC 25923.
For test [33], the system named is Lacticaseibacillus rhamnosus 1.9205.
The subject of test [34] is Lacticaseibacillus rhamnosus 7469.
Test [35] relates to Streptococcus agalactiae ATCC 13813.
The subject of test [36] is Staphylococcus epidermidis ATCC 12228.
For test [37], the system named is Staphylococcus aureus ATCC 29213.
Test [38] relates to Lacticaseibacillus rhamnosus 1.0386.
Test [39] has as its system Lacticaseibacillus rhamnosus 1.0385.
For test [40], the system named is Lactiplantibacillus plantarum 8014.
Test [41] relates to Salmonella enterica subsp. enterica serovar Typhimurium C77-31.

Molecules are shown by their SMILES. In brackets after ≈: the same amount, converted by molar mass. Several values for one entry are separate records, joined by “and”; a condition that tells them apart may be missing. Identical values can stand only once. Bounds are passed on as bounds.

A word on the MIC: it is the lowest concentration that inhibits growth of the organism. Consider `CC[C@H](C)[C@H](NC(=O)CNC(=O)[C@H](CC(N)=O)NC(=O)[C@H](CC(C)C)NC(=O)[C@@H](NC(=O)[C@H](CCCN=C(N)N)NC(=O)CNC(=O)[C@@H](NC(=O)[C@@H](NC(=O)[C@@H]1CCCN1C(=O)[C@H](Cc1ccccc1)NC(=O)[C@@H](N)Cc1ccccc1)C(C)C)[C@@H](C)CC)[C@@H](C)CC)C(=O)N[C@@H](CC(C)C)C(N)=O` [FFPVIGRILNGIL], for which the MIC in test [1] is not below 32 µM; in [2] it was not below 128 µM; in the test on Candida krusei PMC 0624, not below 32 µM; in test [3], not below 128 µM; in the test with Candida krusei PMC 0610, not below 128 µM; in test [4], 16 µM (≈ 23.3 µg/mL). The MIC is not below 32 µM in [5]; not below 64 µM in test [6]; not below 32 µM in test [7]; 16 µM (≈ 23.3 µg/mL) in test [8]; not below 128 µM in [9]; 16 µM (≈ 23.3 µg/mL) in [10]. The MIC in test [11] is not below 64 µM; in [12], not below 128 µM; in test [13] it was 16 µM and 21.3 µM; in test [14], not below 32 µM; in test [15] it was not below 128 µM; in [16], not below 64 µM.
With `CC[C@H](C)[C@H](NC(=O)[C@@H](N)Cc1ccccc1)C(=O)N[C@@H](Cc1ccccc1)C(=O)N[C@@H](CC(C)C)C(=O)N1CCC[C@H]1C(=O)N[C@H](C(=O)N[C@@H](Cc1ccccc1)C(=O)N[C@@H](CCCN=C(N)N)C(=O)N[C@@H](CCCN=C(N)N)C(=O)N1CCC[C@H]1C(=O)N[C@H](C(=O)N[C@@H](CO)C(N)=O)C(C)C)[C@@H](C)CC` [FIFLPIFRRPVS], the MIC was 10.7 µM (≈ 16 µg/mL) in test [17], not below 85.8 µM in test [18] and not below 85.8 µM in [19].
Turning to `CC[C@H](C)[C@@H]1NC(=O)[C@H](C)NC(=O)[C@@H](NC(=O)[C@H](Cc2ccccc2)NC(=O)[C@@H](NC(=O)[C@H](CCCCN)NC(=O)[C@H](Cc2c[nH]c3ccccc23)NC(=O)[C@@H]2CCCN2C(=O)[C@H](Cc2c[nH]c3ccccc23)NC(=O)[C@H](Cc2ccccc2)NC(=O)[C@@H](N)CCCCN)[C@@H](C)CC)CSSC[C@@H](C(=O)O)NC(=O)[C@H](CCCCN)NC(=O)[C@H](CCCCN)NC(=O)[C@H]([C@@H](C)O)NC1=O` [KFWPWKIFCAITKKC], the MIC in test [20] was 8 µM (≈ 15.2 µg/mL); in [21] it was not below 256 µM; in test [22] it was 8 µM (≈ 15.2 µg/mL); in test [23], not below 32 µM; in [24], 16 µM (≈ 30.4 µg/mL); in test [25], 64 µM (≈ 121 µg/mL). Moreover, in test [26], the MIC turned out to be 8 µM (≈ 15.2 µg/mL).
Take `CC[C@H](C)[C@H](NC(=O)[C@H](CCCN=C(N)N)NC(=O)[C@H](CCC(N)=O)NC(=O)[C@@H](NC(=O)[C@@H](NC(=O)[C@H](CCCN=C(N)N)NC(=O)[C@H](CCCCN)NC(C)=O)[C@@H](C)CC)C(C)C)C(=O)N[C@@H](CCCCN)C(=O)N[C@@H](CC(=O)O)C(=O)N[C@@H](Cc1ccccc1)C(=O)N[C@@H](CC(C)C)C(=O)N[C@@H](CCCN=C(N)N)C(=O)N[C@@H](C)C(=O)NCC(=O)N1CCC[C@H]1C(=O)N[C@H](C(=O)N[C@@H](CCCCN)C(=O)N[C@@H](CC(=O)O)C(=O)N[C@@H](Cc1ccccc1)C(=O)N[C@@H](CC(C)C)C(=O)N[C@@H](CCCN=C(N)N)C(N)=O)[C@@H](C)CC` [KRIVQRIKDFLRAGPIKDFLR]: in test [27], the MIC is 0.778 µM and 0.389 µM.
`C[C@H](NC(=O)[C@H](Cc1c[nH]c2ccccc12)NC(=O)[C@H](Cc1c[nH]c2ccccc12)NC(=O)[C@H](Cc1c[nH]c2ccccc12)NC(=O)[C@H](Cc1c[nH]c2ccccc12)NC(=O)[C@H](CCCN=C(N)N)NC(=O)[C@H](CCCN=C(N)N)NC(=O)[C@@H](N)CCCN=C(N)N)C(N)=O` [RRRWWWWA]: the MIC was 12.5 µM (≈ 16.3 µg/mL) in [28], 25 µM (≈ 32.5 µg/mL) in test [29] and not below 50 µM in [30].
As to `CC[C@H](C)[C@H](NC(=O)[C@H](CCCCN)NC(=O)[C@@H](NC(=O)[C@@H](N)Cc1c[nH]c2ccccc12)[C@@H](C)CC)C(=O)N[C@@H](Cc1c[nH]c2ccccc12)C(=O)N[C@@H](CCCCN)C(=O)N[C@@H](CCCCN)C(=O)N[C@H](C(=O)N[C@H](C(=O)N[C@@H](CCCCN)C(=O)N[C@@H](CCCCN)C(=O)N[C@@H](Cc1c[nH]c2ccccc12)C(=O)N[C@@H](CCCCN)C(=O)N[C@@H](CCCCN)C(=O)O)[C@@H](C)CC)[C@@H](C)CC` [WIKIWKKIIKKWKK], the MIC is not below 128 µM in [31]; 8 µM (≈ 15.4 µg/mL) in [32]; not below 128 µM in [33]; not below 128 µM in [34]; 4 µM (≈ 7.71 µg/mL) in test [25]; 2 µM (≈ 3.85 µg/mL) against Escherichia coli 987P. The MIC in test [35] stood at 8 µM (≈ 15.4 µg/mL); in the test on Escherichia coli K99, 4 µM (≈ 7.71 µg/mL); in test [36] it was 4 µM (≈ 7.71 µg/mL); against Escherichia coli 078, 16 µM (≈ 30.8 µg/mL); against Escherichia coli K88 it was 8 µM (≈ 15.4 µg/mL); in [37] it was 4 µM (≈ 7.71 µg/mL). Further, the MIC in [38] is not below 128 µM; in test [39], not below 128 µM; against Escherichia coli UB1005 it was 8 µM (≈ 15.4 µg/mL); in [40], not below 128 µM; in test [41] it was not below 128 µM.

(Values after DBAASP.)
